Assay results reported in patent US11007385B2, “Use of cellular extracts for skin rejuvenation” (Regenics AS, priority 2012, dated 2021).
Several values for one entry are separate records, joined by “and”; a condition that tells them apart may be missing. Equal values may be shown once.

Tests used:
[1] = system: human skin fibroblasts (hSF); assay: Collagen secretion from human skin fibroblasts (Biocolor Sircol collagen assay); format: cell-based; conditions: for Collagen Abs / Collagen/cell / Coll/cell % change: 8 days
Experimental: LEX 42 and different concentrations of retinoic acid (0.01M and 0.1M) are applied to fibroblasts (HsF cells) in vitro and collagen production and secretion is measured. Briefly, on day 0, fibroblasts are seeded in 25 cm^2 cell culture flasks at a density of 2.8×10^5 cells per flask. On day 1, the culture media is replaced with fresh culture media supplemented with 0.5% LEX, 0.01M RA, or 0.1M RA. Control cells are grown with cell culture medium without LEX or RA. The cultures are continued for seven days, with a media (LEX/RA/control) change at day 4. On day 8, the cells are washed 3× with PBS before adding cell culture medium with low serum (1% FBS). On day 9, the culture medium (1.4 ml) is harvested and collagen content assessed using a collagen kit (Biocolor, on eht world wide web at biocolor.co.uk/index.php/assay-kits/sircol-1/). The absorbance is measured with Nanodrop 2000c (Thermo).
LEX 51 was applied to fibroblasts (HsF cells) in vitro, and collagen production and secretion was assayed. The procedure was as described above, except with the modification of the assay on day 10, were 2 ml of the culture medium is harvested and collagen content assessed using a collagen kit (Biocolor, biocolor.co.uk/index.php/assay-kits/sircol-1/), with the adaptation of isolating collagen from 2 ml of culture medium compared to 1 ml as described in the kit manual. The absorbance is measured at 550 nm (the base line was set to 750 nm) with the Nanodrop 2000 (Thermo)
Collagen assay from Biocolor was used to analyze the effect of LEX on hSF (fibroblast). This assay measures the produced and secreted collagen from hSF (fibroblasts). The measurements from un-stimulated control was compared to LEX stimulated hSF (fibroblasts) and noted as fold induction.
The level of collagen was measured after 8 days of treatment with 0% or 0.5% reconstituted freeze dried salmon egg extract I in complete growth medium supplemented with 10% FBS. Ascorbic acid (1 μg/ml) and 0.5% salmon egg extract I was used as positive controls.

[2] = system: human skin fibroblasts (hSF); assay: Proliferation / cell number of human skin fibroblasts; format: cell-based; parameters: increase in cell number: unit not given here; conditions: 8 days; for Cell % change: vs control

CC1=C(/C=C/C(C)=C/C=C/C(C)=C/C(=O)O)C(C)(C)CCC1 [RA, retinoic acid]
Collagen Abs ([1]; 0.01 μM RA): 0.046 | Collagen/cell ([1]; 0.01 μM RA): 4.7925E−08 | Coll/cell % change ([1]; 0.01 μM RA, vs control): −16.5% | Collagen Abs ([1]; 0.1 μM RA): 0.046 | Collagen/cell ([1]; 0.1 μM RA): 5.077E−08 | Coll/cell % change ([1]; 0.1 μM RA, vs control): −11.5% | decrease of collagen per cell ([1]; 0.1 μM RA, vs control): 11.5% | decrease of collagen produced per cell ([1]; 0.01M RA, vs control): 16.5% | fold change of collagen produced per cell compared to control cultures ([1]; RA cultures (0.01M and 0.1M), eight days): 0.84 and 0.89 | final # of cells ([2]; 0.01 μM RA): 959833 | Cell % change ([2]; 0.01 μM RA): 10.1% | final # of cells ([2]; 0.1 μM RA): 906000 | Cell % change ([2]; 0.1 μM RA): 3.9% | increase in cell number ([2]; 0.01M RA): 3.99 | increase in cell number compared to control ([2]; 0.1M RA): 10%
